What all share (format): cell-based
For data set [1], the system named is bovine viral diarrhea virus (BVDV) strain NADL. In words: BVDV CPE-inhibition assay in MDBK cells. As to the method:
The antiviral evaluation of selected BIT compounds against BVDV was outsourced to Southern Research Institute (SRI), Fredrick Md. USA. A simple cytoprotection format is used in which the antiviral efficacy of the compounds is assessed by their ability to reduce the cytopathic effect of BVDV infection in Madin-Darby bovine kidney cells (Buckwold et al., 2003)
(§1) A virus-induced cytopathogenic effects (CPE)-inhibition assay procedure was employed to evaluate compounds for antiviral activity against bovine viral diarrhea virus (BVDV) strain NADL, in Madin-Darby bovine kidney (MDBK) cells passaged in T-75 flasks (1, 2). Antiviral assays were designed to test six half-log concentrations of each compound in triplicate against the challenge virus. Cell controls (CC) containing medium alone, virus-infected cell controls (VC) containing medium and virus, drug cytotoxicity controls containing medium and each drug concentration, reagent controls containing culture medium only (no cells), and drug colorimetric controls containing drug and medium (no cells) are run simultaneously with the test samples. Human interferon-α 2b was used as a positive control compound. On the day preceding the assay, the cells were trypsinized, pelleted, counted and resuspended at 1×10^4/well in tissue culture medium in 96-well flat bottom tissue culture plates in a volume of 100 μl per well. One day following plating of cells, the wells were washed and the medium was replaced with complete medium (2% serum) containing various concentrations of test compound diluted in medium in a half-log series. A pre-titered aliquot of virus was removed from the freezer (−80° C.) just before each experiment. The virus was diluted into tissue culture medium such that the amount of virus added to each well would give complete cell killing at 6-7 days post-infection. The plates were incubated at 37° C. in a humidified atmosphere containing 5% CO2 until maximum CPE is observed in the untreated virus control cultures (˜day 7) Inhibition of CPE by the compound was determined using Cell Titer 96 (Promega). A colorimetric method for determining the number of viable cells was used. A computer program was utilized to calculate the percent of CPE reduction of the virus-infected wells and the percentage cell viability of uninfected drug control wells. […] A therapeutic (selectivity) index (TI50) for each active compound was determined by dividing the TC50 by the IC50.
(§2) Drug cytotoxicity was measured separately in uninfected cells. Eleven BIT compounds were tested in the first experiment in which the compounds were added to the cells just prior to infection and were maintained throughout the entire experiment. Two of them, BIT225 and BIT314 returned sub-micromolar IC50 values (see Table 2 below).

For data set [2], the target named is T1, HCV p7 ion channel protein (Hepatitis C virus genotype 1a, UniProt P27958).
T1 construct: codons were optimised for expression of the p7 protein in E. coli; expressed in transfected cells; host or cells: E. coli carrying plasmid pPLp7 (pPL451 backbone, temperature-inducible)
Kind of data set: Bacterial bioassay: growth of E. coli expressing HCV p7. The settings on record: cumulative averaged scores; result above zero indicates potential anti-viral activity. More on the design: scale not given here. An excerpt:
The bacterial bioassay method used in the present example to test the anti-viral activity of the compounds against different viral targets was described in detail in PCT/2004/000866, incorporated in its entirety herein by reference. This assay is used in conjunction with the GBV-B and BVDV assays described below, to ensure that all active compounds are identified, some of which are active in one or the other of the assays, while some compounds may be active in both assays.
Briefly, the bacterial bio-assay for screening potential anti-HCV compounds is based on the HCV p7 ion channel protein. p7 is a small membrane protein encoded by HCV, which has a functional activity supporting viral growth and/or replication.
The p7-encoding synthetic cDNA fragment cDp7.coli, in which codons were optimised for expression of the p7 protein in E. coli, was cloned into the expression plasmid pPL451, creating the vector pPLp7, in which p7 expression is temperature inducible, as described in detail in PCT/2004/000866. Inhibition of the growth of E. coli cells expressing p7 at 37° C. was observed as an indicator of p7 ion channel function dissipating the normal Na+gradient maintained by the bacterial cells. Halos of growth around a particular compound application site indicate that the compound has inhibited expression of the p7 ion channel activity that prevents growth in the absence of the compound.
The positive controls were used in this assay to ensure that the assay was working rather than for comparison of relative activities of the compounds.

The test system of data set [3] is Madin-Darby bovine kidney (MDBK) cells. Kind of data set: Drug cytotoxicity in uninfected MDBK cells. The settings on record: for TC50: uninfected MDBK cells.
Description: as §1, §2

[4] abbreviates: Bovine viral diarrhea virus isolates and strains, MDBK, nucleoside analog tested individually against BVDV, read-out: EC50.
The mark [5] stands for this setting: BVDV in MDBK cells, compound added just prior to infection and maintained, N/A = not achieved, read-out: IC50.
Where [6] appears, read: Bovine viral diarrhea virus isolates and strains, MDBK, Table 2a, read-out: BVDV IC50.

Where “and” joins values, the source holds several entries; their conditions need not be identical. Equal entries are not always repeated. Where two headings read alike, the source gives them in different places.

T1 sequence (P27958 747-809): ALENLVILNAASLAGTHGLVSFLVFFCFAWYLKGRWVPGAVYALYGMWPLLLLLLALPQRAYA

Take `C[C@@]1(O)[C@H](O)[C@@H](CO)O[C@H]1n1cnc2c(N)ncnc21` [2′-C-methyladenosine, reference compound]: in data set [1] (setting [4]), the EC50 was 2160 nM.

Turning to `C[C@@]1(O)[C@H](O)[C@@H](CO)O[C@H]1n1ccc(N)nc1=O` [2′-C-methylcytidine, reference compound], the EC50 in data set [1] (setting [4]) is 2750 nM.

On to `N=C(N)NC(=O)C=Cc1cccc(Br)c1` [BIT067, (3-Bromocinnamoyl)guanidine], for which the “Average Bacterial Assay Score HCV p7” value in data set [2] is 2.00.

With `N=C(N)NC(=O)C=Cc1cc(Br)ccc1F` [BIT124, 5-bromo-2-fluorocinnamoylguanidine], the “Average Bacterial Assay Score HCV p7” value in data set [2] is given as 2.70. Moreover, the TC59 in data set [3] was found to be 5.21 µM.

On to `N=C(N)NC(=O)/C=C/c1cccc(C(=O)c2ccccc2)c1` [BIT216, (3-benzoyl)cinnamoylguanidine], for which the “Average Bacterial Assay Score HCV p7” value in data set [2] stood at 1.3.

In the case of `N=C(N)NC(=O)/C=C/c1cccc2c1OCO2` [BIT217, 2,3-methylenedioxycinnamoyl guanidine], in data set [2], the “Average Bacterial Assay Score HCV p7” value was 1.0.

`Cc1cccc2cc(C(=O)NC(=N)N)ccc12` [BIT218, 5-methyl-2-napthoylguanidine]: in data set [2], the “Average Bacterial Assay Score HCV p7” value is reported as 1.7.

As for `N=C(N)NC(=O)/C=C/c1cccc2c1CCC2` [BIT222, 3(indan-4-yl)-propenoylguanidine], the “Average Bacterial Assay Score HCV p7” value in data set [2] amounted to 2.0.

For `COc1ccc2cc(C(=O)NC(=N)N)ccc2c1Br` [BIT223, 5-bromo-6-methoxy-2-napthoylguanidine], the “Average Bacterial Assay Score HCV p7” value in data set [2] came out at 0.5. In addition, the IC50 in data set [1] (setting [5]) is 4380 nM. In data set [3], this molecule had a TC50 of more than 30.0 µM.

Take `N=C(N)NC(=O)c1ccc2c(-c3ccsc3)cccc2c1` [BIT224, 5-thiophen-3-yl-2-naphthoylguanidine]: in data set [2], the “Average Bacterial Assay Score HCV p7” value was 1.10.

With `N=C(N)NC(=O)C=Cc1ccc(Cl)c(Cl)c1` [BIT300, 3,4-dichlorocinnamoyl guanidine], the “Average Bacterial Assay Score HCV p7” value in data set [2] is 1.12. This molecule had a TC59 in data set [3] of 3.69 µM.

Consider `COc1c(C(=O)NC(=N)N)ccc2ccccc12` [BIT301, (1-methoxy-2-napthoyl)guanidine], for which the “Average Bacterial Assay Score HCV p7” value in data set [2] was 0.25. Moreover, the IC50 in data set [1] (setting [6]) was more than 20000 nM.

Turning to `COc1cc2ccccc2cc1C(=O)NC(=N)N` [BIT302, (3-methoxy-2-napthoyl)guanidine], the “Average Bacterial Assay Score HCV p7” value in data set [2] was 0.76. The IC50 in data set [1] (setting [6]) came out at 7210 nM.

As for `N=C(N)NC(=O)c1ccc2c(Br)cccc2c1` [BIT303, (5-bromo-2-napthoyl)guanidine], the “Average Bacterial Assay Score HCV p7” value in data set [2] is listed as 0.62. Moreover, the IC50 in data set [1] (setting [6]) is 13600 nM.

Consider `COc1cc(C(=O)NC(=N)N)c(OC)c2ccccc12` [BIT304, (1,4-dimethoxy--2-napthoyl)guanidine], for which the “Average Bacterial Assay Score HCV p7” value in data set [2] was found to be 0.60. Besides, the IC50 in data set [1] (setting [6]) was more than 20000 nM.

On to `N=C(N)NC(=O)c1ccc2cc(-c3ccsc3)ccc2c1` [BIT305, (6-(3-thienyl)-2-napthoyl)guanidine], for which the “Average Bacterial Assay Score HCV p7” value in data set [2] is 0.08. For the same molecule, in data set [1] (setting [6]), the IC50 was more than 20000 nM.

In the case of `Cc1ccc2cc(C(=O)NC(=N)N)ccc2c1` [BIT306, (6-methyl-2-napthoyl)guanidine], in data set [2], the “Average Bacterial Assay Score HCV p7” value came to 0.07. For the same molecule, the IC50 in data set [1] (setting [6]) was 14500 nM.

Take `N=C(N)NC(=O)c1ccc2c(-c3ccccc3)cccc2c1` [BIT307, (5-phenyl-2-napthoyl)guanidine]: the “Average Bacterial Assay Score HCV p7” value in data set [2] was determined as 0.46. Besides, the IC50 in data set [1] (setting [6]) was 1990 nM.

For the molecule `N=C(N)NC(=O)c1ccc2c(-c3cccs3)cccc2c1` [BIT308, (5-(thien-2-yl)-2-napthoyl)guanidine], the “Average Bacterial Assay Score HCV p7” value in data set [2] was determined as 0.55. The IC50 in data set [1] (setting [6]) worked out at 8730 nM.

For `CC(C)Cn1cc(-c2cccc3cc(C(=O)NC(=N)N)ccc23)cn1` [BIT310, (5-(1-isobutyl-1H-pyrazol-4-yl)-2-napthoyl)guanidine], the “Average Bacterial Assay Score HCV p7” value in data set [2] was 0.36. Besides, in data set [1] (setting [6]), the IC50 is more than 20000 nM.

Regarding `N=C(N)NC(=O)c1ccc2c(-c3ccoc3)cccc2c1` [BIT311, (5-(3-furyl)-2-napthoyl)guanidine], the “Average Bacterial Assay Score HCV p7” value in data set [2] is listed as 0.81. The IC50 in data set [1] (setting [6]) worked out at 2960 nM.

Consider `N=C(N)NC(=O)c1ccc2c(C3CC3)cccc2c1` [BIT312, (5-cyclopropyl-2-napthoyl)guanidine], for which the “Average Bacterial Assay Score HCV p7” value in data set [2] came to 1.00. Moreover, the IC50 in data set [1] (setting [6]) stood at 8630 nM.

As for `N=C(N)NC(=O)c1ccc2c(Cl)cccc2c1` [BIT313, (5-chloro-2-napthoyl)guanidine], the “Average Bacterial Assay Score HCV p7” value in data set [2] is reported as 1.30. In addition, the IC50 in data set [1] (setting [6]) stood at 9640 nM.

Regarding `CC(=O)O.Cn1cc(-c2ccc3cc(C(=O)NC(=N)N)ccc3c2)cn1` [BIT314, (6-(1-methylpryazol-4-yl)-2-napthoyl)guanidinium acetate], the “Average Bacterial Assay Score HCV p7” value in data set [2] is 4.03. The IC50 in data set [1] (setting [5]) is 210 nM; in data set [1] (setting [6]) it was 390 nM. Moreover, the EC50 is 300 nM in data set [1] (Bovine viral diarrhea virus isolates and strains, MDBK, drug alone, average of experiments, read-out: average EC50); 183 nM in data set [1] (Bovine viral diarrhea virus isolates and strains, MDBK, in the presence of 5 IU/ml IFNα plus 1.25 μg/ml ribavirin, read-out: EC50); approximately 60 nM in data set [1] (Bovine viral diarrhea virus isolates and strains, MDBK, in the presence of 40 IU/ml IFNα, read-out: EC50); 380 nM in data set [1] (drug alone, average of experiments, read-out: average EC50); 210 nM and 390 nM and 540 nM in data set [1] (drug tested individually against BVDV, read-out: EC50). Further, the “IC50 values (in words)” value in data set [1] (first experiment, Table 2) is listed as “sub-micromolar”. This molecule also came in with a TC50 in data set [3] of 11.6 µM.

In the case of `COc1ccc(-c2cccc3cc(C(=O)NC(=N)N)ccc23)c(OC)n1` [BIT315, (5-(2,6-dimethoxypryridin-3-yl)-2-napthoyl)guanidine], the “Average Bacterial Assay Score HCV p7” value in data set [2] worked out at 0.20. Also, the IC50 in data set [1] (setting [6]) is more than 20000 nM.

For the molecule `N=C(N)NC(=O)c1ccc2c(-c3ccccc3Cl)cccc2c1` [BIT316, (5-(2-chlorophenyl)-2-napthoyl)guanidine], in data set [2], the “Average Bacterial Assay Score HCV p7” value came out at 0.37. The IC50 in data set [1] (setting [6]) was more than 20000 nM.

In the case of `CC(=O)Nc1ccc(-c2cccc3cc(C(=O)NC(=N)N)ccc23)cc1` [BIT317, (5-(4-(acetylamino)phenyl)-2-napthoyl)guanidine], in data set [2], the “Average Bacterial Assay Score HCV p7” value is on record as 0.06. Also, the IC50 in data set [1] (setting [6]) was determined as 6020 nM.

With `CC(=O)Nc1cccc(-c2cccc3cc(C(=O)NC(=N)N)ccc23)c1` [BIT318, (5-(3-(acetylamino)phenyl)-2-napthoyl)guanidine], the “Average Bacterial Assay Score HCV p7” value in data set [2] is listed as 0.73. Further, the IC50 in data set [1] (setting [6]) is more than 20000 nM.

For the molecule `CS(=O)(=O)Nc1ccc(-c2cccc3cc(C(=O)NC(=N)N)ccc23)cc1` [BIT319, (5-(4-((methylsulphonyl)amino)phenyl)-2-napthoyl)guanidine], the “Average Bacterial Assay Score HCV p7” value in data set [2] is 0.10. Also, the IC50 in data set [1] (setting [6]) is more than 20000 nM.

The molecule IFN-α yielded an inhibition in data set [1] (5 IU/ml IFNα alone) of approximately 8%. In data set [1] (BVDV in MDBK cells, positive control), this molecule gave an IC50 of 20.6 IU/mL. In addition, the EC50 in data set [1] (drug tested individually against BVDV) is recorded as 21.7 IU/ml. The molecule also yielded a TC59 in data set [3] of more than 500 IU/mL.

A word on the inhibition: it is how much of the control response was suppressed.

The values above are taken from US20100254942A1, “HEPATITIS C ANTIVIRAL COMPOSITIONS AND METHODS” (BIOTRON LIMITED, priority 2007, published 2010).
